Assays:
[1] = molecular target: T1, Human recombinant HMG CoA reductase (Homo sapiens, UniProt P04035); assay: HMG CoA reductase activity, [14C]mevalonate formation; assay type: biochemical; details: 10 μM
T1 construct: purchased Sigma-Aldrich (printed 'Sigma-Adrich') H7039; host or cells: E. coli
Procedure: Human recombinant HMG CoA reductase expressed in E. coli (H7039, Sigma-Adrich, Mo, U.S.A.) was used. Human recombinant HMG-CoA reductase, examined by SDS-PAGE to be ≧90% in purity, 2-8 units/mg protein in activity and ˜76 kDa in molecular weight (H7039, Sigma-Adrich, St. Louis, Mo. U.S.A.), was used for determining the formation of [^14C]mevalonate. […] The reaction was initiated by the addition of 2.5 μM [^14C]HMG-CoA for another 20 minutes incubation period and terminated by further addition of 1 N HCl. An aliquot was removed by column and counted to determine the amount of [^14C]mevalonate formed (Ricera® Co. Ltd., Taipei, Taiwan).

[2] = tested on: eNOS; assay: Table 3 eNOS (% of control); assay type: cell-based; details: control group = 100 (%)
[3] = tested on: epididymal fat pads; assay: H&E staining, weight and cell diameter of epididymal fat pads; assay type: in vivo, mice
Procedure: (§1) In the 14-week experiment, mice were fed a HFD from week 1 to week 14. During the 3 month experiments, KMUP-1 HCl (2.5 mg) was added to 200 ml tap water and) and drink for 14 weeks or for the last 6 weeks on mice or obese mice fed HFD, separately. 5 mice had free access to drinking water from week 1 to week 14 (protective group) or from week 8 to week 14 (treatment group). Tap water was used to normalize mineral nutrition (Scheme A).
(§2) Mice liver and epididymal fat pads were cut and soaked in formalin, dehydrated through graded alcohols and embedded in paraffin. Specimens of liver tissues and epididymal fat pads fixed with formalin (4%) were embedded in paraffin for one hour at 4° C., cut into […] sections, and subjected to H&E staining before examination by light microscope. In heart tissues, the 4-μm-thick paraffin sections were cut from paraffin-embedded tissue blocks and de-paraffinized by immersion in xylene and rehydrated. The slices were then dyed with H&E. After gently rinsing with water, each slide was dehydrated through graded alcohols and finally soaked in xylene twice.

[4] = tested on: LXRα; assay: LXRα expression in HepG2 cells; assay type: cell-based; details: HepG2, 10^−9-10^−5 M
Procedure: HepG2 cells were treated with various concentrations of drugs for 24 hours. […] All of the fractionated protein solutions were stored at −80° C. until analysis. To measure the expression levels of proteins by drugs, the total cell protein was extracted after incubation with treatments for 24 hours and then Western blotting analysis was performed as described previously.

[5] = tested on: RhoA; assay: RhoA translocation from cytosol to membranes in HepG2 cells; assay type: cell-based
Procedure: HepG2 cells were treated with various concentrations of drugs for 24 hours. Reactions were terminated by washing twice with cold PBS, and the cells were then harvested, Proteins in the whole-cell lysate were homogenized in an ice-cold lysis buffer and a protease inhibitor (Sigma-Aldrich, St. Louis, Mo., U.S.A.). The homogenate was centrifuged at 90, 000 g for 15 minutes at 4° C., and supernatant was recovered as the total cellular protein. Cytosolic and membrane fractions of HepG2 cells were prepared using a. CNM (Cytosol Nuclear Membrane) compartment protein extraction kit (BioChain Institute Inc., Hayward, Calif., U.S.A.) according to the manufacturer's instructions. All of the fractionated protein solutions were stored at −80° C. until analysis. To measure the expression levels of proteins by drugs, the total cell protein was extracted after incubation with treatments for 24 hours and then Western blotting analysis was performed as described previously.

[6] = tested on: ABCA1; assay: ABCA1 expression in liver of HFD mice (8 weeks); assay type: in vivo; details: animals treated with HFD
[7] = tested on: mice fed a HFD; assay: HFD-fed mice, 14-week experiment: body weight, liver morphology, H&E, oil globulets; assay type: in vivo
Procedure: as §1
The diameter of the white bar in the photograph was standardized at 100 μM for measuring the specific diameter of oil globulets in a whole liver slice, observed by microscope, with the aid of Powerpoint PC computer software (Microsoft®, USA) and printed out by a Hewlett-Packard® printer (USA). An increase in oil globulet diameter and cell number indicated increasing liver steatosis, i.e. steaotohepatitis. In contrast, decrease in diameter and the number of fat cells indicated the inhibition of steaotohepatitis. […] Hematoxylin-eosin (H&E) and […] staining of liver were used to assess oil globulet numbers under a microscope.
as §2
Hematoxylin-eosin (H&E) and IHC staining of liver were used to assess oil globulet numbers under a microscope. A 100 μM white bar was used to determine oil globule sizes in the liver. Oil globulets in a cell were counted from larger to smaller until size limitations were reached. Increases of oil globulet diameter and number indicated increasing liver steatosis. In contrast, a decrease in oil globulet diameters and numbers could indicate the inhibition of liver steatosis. Oil globulets were measured using a Nikon Eclipse TE200-S microscope, aided by Powerpoint computer software (Microsoft®) and printed by a HP® printer to measure the diameter and number of oil globulets on paper. Counting: of oil globules was performed from larger to smaller ones until the observation reached its limit.

[8] = tested on: PKA; assay: PKA expression and immunoreactivity in HepG2 cells; assay type: cell-based
[9] = tested on: PPAR-γ; assay: Table 3 PPAR-γ (% of control); assay type: cell-based; details: control group = 100 (%)
[10] = tested on: MMP-9; assay: IHC staining of MMP-9 in steatohepatitis liver; assay type: in vivo, mice; details: treatment and protection groups
Procedure: as §1
For IHC of MMP-9/TNFα, HSL/p-HSL/ATGL and eNOS/IL-10, antigen retrieval of de-paraffinated sections was performed in Dako target retrieval solution, pH 9.0, in a vegetable steamer followed by the quenching of endogenous peroxidase activity with 3.0% H2O2 in methanol. Sections were then incubated with specific primary antibodies overnight at 4° C. in a humidified chamber. The antibodies used included rabbit polyclonal anti-eNOS (1:50 dilution) (Abcam, Cambridge, UK) or rabbit monoclonal anti-cleaved caspase-3 (1:50 dilution) (Cell Signaling, USA). The sections were then examined using a DAKO REAL EnVision™ Detection System kit (DAKO, Carpinteria, Calif.) and counterstained with hematoxylin. Images were obtained through a Nikon Eclipse TE200-S microscope.

T1 sequence (P04035 426-888 limits assumed): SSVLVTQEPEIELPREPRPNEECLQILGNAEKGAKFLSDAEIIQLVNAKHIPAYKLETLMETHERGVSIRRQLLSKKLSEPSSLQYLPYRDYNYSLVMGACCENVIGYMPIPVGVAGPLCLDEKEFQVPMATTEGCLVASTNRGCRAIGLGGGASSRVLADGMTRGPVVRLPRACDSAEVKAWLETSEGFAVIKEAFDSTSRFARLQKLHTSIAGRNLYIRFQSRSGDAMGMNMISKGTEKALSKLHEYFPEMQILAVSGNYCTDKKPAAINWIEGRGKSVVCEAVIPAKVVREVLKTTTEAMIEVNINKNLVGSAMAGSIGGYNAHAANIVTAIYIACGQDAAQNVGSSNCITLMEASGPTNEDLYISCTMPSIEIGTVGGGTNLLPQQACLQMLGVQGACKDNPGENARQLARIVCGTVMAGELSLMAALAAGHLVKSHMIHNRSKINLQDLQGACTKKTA

SMILES: Cn1c(=O)c2c(ncn2CCN2CCN(c3ccccc3Cl)CC2)n(C)c1=O [KMUP-1, 7-[2-[4-(2-chlorophenyl)piperazinyl]ethyl]-1,3-dimethyl xanthine]
- [14C]mevalonate formation [1]: could not reduce
- eNOS ([2]; 0.1 μM): 121.6 ± 16.5%
- eNOS ([2]; 1.0 μM): 132.7 ± 15.2%
- eNOS ([2]; 10 μM): 138.9 ± 15.2%
- epididymal fat pad weight ([3]; 2.5 mg/kg/day for 14 weeks): significantly reduced
- fat cell diameter ([3]; 2.5 mg/kg/day for 14 weeks): significantly reduced
- HFD-induced hypertrophy/hyperplasia of epididymal fat pads (H&E) ([3]; protection, 2.5 mg/kg): inhibited
- LXRα expression [4]: concentration-dependently increased
- translocation of RhoA from cytosol to membranes [5]: concentration-dependently inhibited
- ABCA1 in liver [6]: activated
- fat globules and Mallory's hyaline bodies (H&E staining of liver) ([7]; oral 2.5 mg/kg, last 6 weeks/14 weeks): reduced
- oil globulet number and changes of oil globulet diameter in liver ([7]; treatment and protection groups): sharply reduced
- PKA immunoreactivity (green fluorescence) [8]: increased
- oxLDL (200 μg/mL)-induced reduction of PKA expression ([8]; 1, 10, 100 μM): reversed
- PKA protein expression ([8]; 10, 20, 40 µM, in the presence of LDL (500 μg/mL)): could not significantly affect
- PPAR-γ ([9]; 0.1 μM): 123.5 ± 17.3%
- PPAR-γ ([9]; 1.0 μM): 135.6 ± 14.5%
- PPAR-γ ([9]; 10 μM): 142.6 ± 15.4%
- antibody response to MMP-9 (IHC, liver) [10]: shaded by the treatment and almost disappeared in the protection group

Source: US20150359798A1, “PIPERAZINYL DERIVATIVE REDUCES HIGH-FAT DIET-INDUCED ACCUMULATION OF FAT IN THE LIVERS, […]” (priority 2011, published 2015)
